Results taken from PubChem BioAssay (NCI).
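Each compound was tested at five concentrations against cells in 96-well plates for 48 hours. TGI denotes the concentration required for complete inhibition of growth.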

Legend:
Assay in all cases: growth of human tumour cells (NCI), 48 h
[1] = tested on: HCT-116 colon
[2] = tested on: M14 melanoma
[3] = tested on: SR leukemia
[4] = tested on: DU-145 prostate
[5] = tested on: HOP-62 NSCLC
[6] = tested on: SW-620 colon
[7] = tested on: MDA-N
[8] = tested on: SN12C renal
[9] = tested on: HCT-15 colon
[10] = tested on: K-562 leukemia
[11] = tested on: A549 NSCLC
[12] = tested on: U251 CNS
[13] = tested on: OVCAR-4 ovarian
[14] = tested on: A498 renal
[15] = tested on: HT29 colon
[16] = tested on: HS 578T breast
[17] = tested on: BT-549 breast
[18] = tested on: NCI-H23 lung
[19] = tested on: NCI/ADR-RES ovarian
[20] = tested on: RXF 393 renal
[21] = tested on: MCF7 breast
[22] = tested on: UO-31 renal
[23] = tested on: MALME-3M melanoma
[24] = tested on: OVCAR-8 ovarian
[25] = tested on: SNB-19 CNS
[26] = tested on: HL-60(TB) leukemia
[27] = tested on: MDA-MB-435
[28] = tested on: SNB-75 CNS
[29] = tested on: SK-MEL-2 melanoma
[30] = tested on: MDA-MB-231 breast
[31] = tested on: IGROV1 ovarian
[32] = tested on: RPMI-8226 leukemia
[33] = tested on: UACC-62 melanoma
[34] = tested on: OVCAR-5 ovarian
[35] = tested on: SF-268 CNS
[36] = tested on: ACHN renal
[37] = tested on: PC-3 prostate
[38] = tested on: LOX IMVI melanoma
[39] = tested on: HOP-92 NSCLC
[40] = tested on: OVCAR-3 ovarian
[41] = tested on: TK-10 renal
[42] = tested on: EKVX NSCLC
[43] = tested on: CCRF-CEM leukemia
[44] = tested on: 786-0 renal
[45] = tested on: UACC-257 melanoma
[46] = tested on: CAKI-1 renal
[47] = tested on: HCC-2998 colon
[48] = tested on: T-47D breast
[49] = tested on: MOLT-4 leukemia
[50] = tested on: NCI-H460 lung
[51] = tested on: SK-OV-3 ovarian
[52] = tested on: SF-539 CNS
[53] = tested on: SF-295 CNS
[54] = tested on: SK-MEL-28 melanoma
[55] = tested on: COLO 205 colon
[56] = tested on: SK-MEL-5 melanoma
[57] = tested on: KM12 colon
[58] = tested on: NCI-H226 lung

O=c1c(Cc2c(O)ccc3ccccc23)nnc2sc(-c3nn4c(=O)c(Cc5c(O)ccc6ccccc56)nnc4s3)nn12
TGI [1]: > 100 µM | TGI [2]: > 100 µM | TGI [3]: > 100 µM | TGI [4]: > 100 µM | TGI [5]: > 100 µM | TGI [6]: > 100 µM | TGI [7]: > 100 µM | TGI [8]: > 100 µM | TGI [9]: > 100 µM | TGI [10]: > 100 µM | TGI [11]: > 100 µM | TGI [12]: > 100 µM | TGI [13]: > 100 µM | TGI [14]: > 100 µM | TGI [15]: > 100 µM | TGI [16]: > 100 µM | TGI [17]: > 100 µM | TGI [18]: > 100 µM | TGI [19]: > 100 µM | TGI [20]: 84.4 µM | TGI [21]: > 100 µM | TGI [22]: > 100 µM | TGI [23]: > 100 µM | TGI [24]: > 100 µM | TGI [25]: > 100 µM | TGI [26]: > 100 µM | TGI [27]: > 100 µM | TGI [28]: 39.9 µM | TGI [29]: 40.3 µM | TGI [30]: > 100 µM | TGI [31]: > 100 µM | TGI [32]: > 100 µM | TGI [33]: > 100 µM | TGI [34]: > 100 µM | TGI [35]: > 100 µM | TGI [36]: > 100 µM | TGI [37]: > 100 µM | TGI [38]: > 100 µM | TGI [39]: > 100 µM | TGI [40]: > 100 µM | TGI [41]: > 100 µM | TGI [42]: > 100 µM | TGI [43]: 96.3 µM | TGI [44]: > 100 µM | TGI [45]: > 100 µM | TGI [46]: > 100 µM | TGI [47]: > 100 µM | TGI [48]: > 100 µM

Cc1ccc(O)c(-c2cc(-c3cccc(Br)c3)on2)c1
TGI [1]: 57.7 µM | TGI [2]: > 100 µM | TGI [3]: 99.4 µM | TGI [4]: > 100 µM | TGI [5]: > 100 µM | TGI [6]: 46.7 µM | TGI [7]: 65.2 µM | TGI [49]: > 100 µM | TGI [8]: 55.1 µM | TGI [9]: > 100 µM | TGI [10]: > 100 µM | TGI [11]: > 100 µM | TGI [12]: 33.7 µM | TGI [13]: 34.6 µM | TGI [14]: > 100 µM | TGI [15]: 67.3 µM | TGI [16]: > 100 µM | TGI [50]: > 100 µM | TGI [17]: 77.5 µM | TGI [18]: > 100 µM | TGI [51]: 68.6 µM | TGI [19]: > 100 µM | TGI [20]: 35.7 µM | TGI [21]: 32.5 µM | TGI [22]: > 100 µM | TGI [23]: 68.9 µM | TGI [52]: > 100 µM | TGI [24]: 67.3 µM | TGI [25]: > 100 µM | TGI [53]: > 100 µM | TGI [54]: 52.8 µM | TGI [26]: 81.9 µM | TGI [27]: 50 µM | TGI [28]: 86.2 µM | TGI [29]: 56 µM | TGI [30]: > 100 µM | TGI [31]: > 100 µM | TGI [32]: 85.2 µM | TGI [33]: 78.1 µM | TGI [55]: 37.1 µM | TGI [34]: > 100 µM | TGI [35]: 89.9 µM | TGI [36]: > 100 µM | TGI [37]: > 100 µM | TGI [38]: 31.5 µM | TGI [39]: > 100 µM | TGI [40]: 51.7 µM | TGI [56]: 41.6 µM | TGI [41]: 43.2 µM | TGI [42]: > 100 µM | TGI [43]: > 100 µM | TGI [44]: > 100 µM | TGI [57]: 47.2 µM | TGI [45]: > 100 µM | TGI [46]: > 100 µM | TGI [47]: 53.2 µM | TGI [48]: > 100 µM

Cc1[nH]c(=O)[nH]c(=S)c1C(=O)NC1C2CCCCC2NC2CCCCC21 (stereo unspecified)
TGI [1]: 31 µM | TGI [2]: 29.6 µM | TGI [3]: > 100 µM | TGI [4]: 26.6 µM | TGI [58]: 33.2 µM | TGI [5]: 32.9 µM | TGI [6]: 40.2 µM | TGI [7]: 34.9 µM | TGI [49]: 43.9 µM | TGI [8]: 58 µM | TGI [9]: 25.9 µM | TGI [10]: > 100 µM | TGI [12]: 27.1 µM | TGI [13]: 50.7 µM | TGI [14]: 41.2 µM | TGI [15]: 48 µM | TGI [16]: 61.8 µM | TGI [50]: 31.6 µM | TGI [17]: 32.8 µM | TGI [18]: 29.8 µM | TGI [19]: 40.2 µM | TGI [20]: 27.6 µM | TGI [21]: 37.2 µM | TGI [22]: 26.7 µM | TGI [23]: 46.8 µM | TGI [24]: 36.2 µM | TGI [25]: 29.7 µM | TGI [53]: 32.8 µM | TGI [54]: 23.8 µM | TGI [26]: > 100 µM | TGI [27]: 20.7 µM | TGI [28]: 32.3 µM | TGI [29]: 36.6 µM | TGI [30]: 33.1 µM | TGI [31]: 33.2 µM | TGI [32]: > 100 µM | TGI [33]: 16.3 µM | TGI [55]: 39.5 µM | TGI [34]: 34.1 µM | TGI [37]: 29.4 µM | TGI [38]: 64 µM | TGI [39]: 33.6 µM | TGI [40]: 29.5 µM | TGI [56]: 33.3 µM | TGI [41]: 30.6 µM | TGI [43]: 36.2 µM | TGI [57]: 34.4 µM | TGI [45]: 33.5 µM | TGI [46]: 33.7 µM | TGI [47]: 84.6 µM | TGI [48]: 43.8 µM
